Measured values reported in patent US8641948B2, “Method of making solid dispersions of highly crystalline therapeutic compounds” (Novartis AG, priority 2006, dated 2014).

Experiment: Stability of the crystalline therapeutic compound (heat, light, oxidation)
Type: physicochemical
Description: An example of a poorly water soluble therapeutic compound appropriate for the present invention is midostaurin which is a protein Kinase C inhibitor.

stability to light and oxidation: light-sensitive and oxidizes
thermal stability (at melting point of about 260° C.): decomposes upon melting
SMILES: CO[C@@H]1[C@H](N(C)C(=O)c2ccccc2)C[C@H]2O[C@]1(C)n1c3ccccc3c3c4c(c5c6ccccc6n2c5c31)C(=O)NC4 [midostaurin]
